# Experimental data: ChEMBL document CHEMBL1201862, “PubChem BioAssay data set” (2004)
# Calls of active or inactive are those of the source.
# What was measured:
# Kallikrein-7 = Kallikrein-7 (Homo sapiens, UniProt P49862); assay: Fluorescence Intensity-based biochemical primary high throughput dose response assay to identify activators of kallikrein-7 (K7) zymogen.
# [1] = molecular target: Voltage-gated inwardly rectifying potassium channel KCNH2 (Homo sapiens, UniProt Q12809); assay: hERG protection from proarrhythmic block, potency, dose response, cell-based, thallium flux (AID 2121); assay type: ADME
# Chain of Voltage-gated inwardly rectifying potassium channel KCNH2 (Q12809 whole entry): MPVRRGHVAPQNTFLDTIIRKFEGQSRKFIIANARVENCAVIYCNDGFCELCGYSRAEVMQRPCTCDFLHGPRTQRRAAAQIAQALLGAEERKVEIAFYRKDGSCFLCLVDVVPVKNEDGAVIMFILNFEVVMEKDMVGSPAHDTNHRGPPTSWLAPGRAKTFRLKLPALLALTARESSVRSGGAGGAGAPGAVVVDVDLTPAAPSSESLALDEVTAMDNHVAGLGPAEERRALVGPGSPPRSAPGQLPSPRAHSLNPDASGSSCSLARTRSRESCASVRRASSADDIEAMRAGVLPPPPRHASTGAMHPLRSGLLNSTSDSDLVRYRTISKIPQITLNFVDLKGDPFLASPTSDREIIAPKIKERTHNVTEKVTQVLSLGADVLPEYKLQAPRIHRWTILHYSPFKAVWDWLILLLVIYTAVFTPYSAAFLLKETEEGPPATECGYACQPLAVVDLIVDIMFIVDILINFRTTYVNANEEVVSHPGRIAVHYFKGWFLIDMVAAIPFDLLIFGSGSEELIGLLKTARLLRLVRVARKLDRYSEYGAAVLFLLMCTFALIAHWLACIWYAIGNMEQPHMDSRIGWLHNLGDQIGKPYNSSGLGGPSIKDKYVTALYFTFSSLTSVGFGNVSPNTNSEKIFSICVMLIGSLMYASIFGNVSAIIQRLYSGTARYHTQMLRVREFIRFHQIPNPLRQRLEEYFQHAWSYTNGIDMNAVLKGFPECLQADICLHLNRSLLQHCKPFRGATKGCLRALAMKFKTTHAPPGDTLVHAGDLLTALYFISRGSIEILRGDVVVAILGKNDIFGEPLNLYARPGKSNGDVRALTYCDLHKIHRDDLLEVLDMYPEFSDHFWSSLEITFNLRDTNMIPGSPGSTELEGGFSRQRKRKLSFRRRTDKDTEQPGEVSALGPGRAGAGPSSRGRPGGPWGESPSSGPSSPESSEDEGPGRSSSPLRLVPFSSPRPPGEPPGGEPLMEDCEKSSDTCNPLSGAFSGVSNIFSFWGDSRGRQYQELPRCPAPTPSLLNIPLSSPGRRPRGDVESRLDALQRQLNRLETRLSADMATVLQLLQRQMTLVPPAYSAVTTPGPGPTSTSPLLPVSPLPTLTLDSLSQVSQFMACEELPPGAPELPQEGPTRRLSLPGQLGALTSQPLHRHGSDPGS
# HT-1080 = assay: cytotoxicity in HT1080 fibrosarcoma cells, cell-based, fluorescence readout (AID 620); assay type: functional; conditions: Homo sapiens
# [2] = molecular target: Luciferin 4-monooxygenase (Photinus pyralis, UniProt P08659); assay: Counter Screen for Luciferase-based Assay Positives. [Related pubchem assays: 620, 618, 411 ]
# Chain of Luciferin 4-monooxygenase (P08659 whole entry): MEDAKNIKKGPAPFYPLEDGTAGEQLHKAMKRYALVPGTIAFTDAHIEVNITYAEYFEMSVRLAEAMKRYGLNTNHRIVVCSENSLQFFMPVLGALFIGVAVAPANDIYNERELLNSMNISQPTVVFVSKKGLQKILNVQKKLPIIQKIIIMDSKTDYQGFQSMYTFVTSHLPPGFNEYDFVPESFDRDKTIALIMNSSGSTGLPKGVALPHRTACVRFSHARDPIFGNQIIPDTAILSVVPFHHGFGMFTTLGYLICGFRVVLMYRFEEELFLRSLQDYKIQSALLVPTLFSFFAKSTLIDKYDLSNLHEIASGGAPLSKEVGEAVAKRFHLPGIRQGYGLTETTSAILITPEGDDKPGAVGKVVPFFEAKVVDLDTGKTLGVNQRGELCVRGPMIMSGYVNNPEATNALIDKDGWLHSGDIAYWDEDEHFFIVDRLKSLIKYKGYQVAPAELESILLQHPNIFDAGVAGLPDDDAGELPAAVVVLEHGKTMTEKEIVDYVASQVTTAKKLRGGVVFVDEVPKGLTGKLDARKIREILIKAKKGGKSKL
# [3] = molecular target: Glyceraldehyde-3-phosphate dehydrogenase (Homo sapiens, UniProt P04406)
# Chain of Glyceraldehyde-3-phosphate dehydrogenase (P04406 whole entry): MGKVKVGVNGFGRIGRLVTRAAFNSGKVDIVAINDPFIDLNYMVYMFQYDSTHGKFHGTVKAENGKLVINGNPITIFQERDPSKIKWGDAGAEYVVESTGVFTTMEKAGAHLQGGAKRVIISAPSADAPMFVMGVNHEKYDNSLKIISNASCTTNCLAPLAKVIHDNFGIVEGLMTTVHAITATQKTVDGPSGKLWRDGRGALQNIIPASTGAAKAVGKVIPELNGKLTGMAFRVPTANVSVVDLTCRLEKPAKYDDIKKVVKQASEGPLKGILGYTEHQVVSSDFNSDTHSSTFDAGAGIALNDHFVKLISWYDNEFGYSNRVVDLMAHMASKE
# [4] = tested on: Streptococcus sp. 'group A'; assay: growth inhibition of control SK(-) GAS strain, dose response, counter-screen for streptokinase expression inhibitor project, luminescence, kanamycin, BacTiterGlo, confirmation (AID 1900); assay type: functional, organism-based
# [5] = molecular target: Eukaryotic translation initiation factor 4E (Mus musculus, UniProt P63073); assay: eIF4E–eIF4G protein interaction inhibitors, dose response, biochemical, TR-FRET (AID 855); assay type: functional;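 further: potency for disrupting eIF4E binding to eIF4GI seen as loss of FRET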
# Chain of Eukaryotic translation initiation factor 4E (P63073 whole entry): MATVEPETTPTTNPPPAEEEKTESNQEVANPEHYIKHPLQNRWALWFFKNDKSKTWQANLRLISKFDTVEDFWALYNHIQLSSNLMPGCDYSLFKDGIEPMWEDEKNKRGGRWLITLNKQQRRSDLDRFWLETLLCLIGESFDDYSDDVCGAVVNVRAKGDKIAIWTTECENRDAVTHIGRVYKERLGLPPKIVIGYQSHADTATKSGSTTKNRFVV
# Streptococcus = assay: Group A Streptococcus viability loss, dose response, counter-screen for streptokinase expression inhibitor project, luminescence, BacTiterGlo (AID 1915); assay type: functional, organism-based;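 further: potency for reduction of bacterial viability or growth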
# Streptokinase A = molecular target: T1, Streptokinase A (Streptococcus pyogenes serotype M1, UniProt P10520); assay: S. pyogenes streptokinase expression inhibitors, potency, dose response, plasminogen activation absorbance, OD405 (AID 1914); assay type: functional, Streptococcus pyogenes M1 GAS;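 further: secreted streptokinase activity via plasminogen activation per viability signal from cell pellet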
# T1 sequence (P10520 whole entry): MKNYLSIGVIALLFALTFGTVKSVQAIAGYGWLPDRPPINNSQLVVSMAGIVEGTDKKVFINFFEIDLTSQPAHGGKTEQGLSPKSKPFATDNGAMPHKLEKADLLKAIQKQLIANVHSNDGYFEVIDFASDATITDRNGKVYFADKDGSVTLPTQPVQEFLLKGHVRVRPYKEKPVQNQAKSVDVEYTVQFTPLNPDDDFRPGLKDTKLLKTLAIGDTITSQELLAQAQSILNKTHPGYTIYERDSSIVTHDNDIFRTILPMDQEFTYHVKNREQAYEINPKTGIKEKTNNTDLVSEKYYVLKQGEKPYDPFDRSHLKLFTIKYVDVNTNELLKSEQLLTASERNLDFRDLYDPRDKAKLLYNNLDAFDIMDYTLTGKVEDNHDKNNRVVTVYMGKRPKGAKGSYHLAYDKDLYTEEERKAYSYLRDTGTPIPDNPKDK
# Insulin-degrading enzyme = molecular target: T2, Insulin-degrading enzyme (Homo sapiens, UniProt P14735); assay: Dose Response: Fluorescence polarization-based cell-based high throughput dose response assay for inhibitors of insulin-degrading enzyme (IDE). [Related pubchem assays: 434962 (Primary screen (IDE inhibitors in singlicate)), 449730 (Counterscreen (Cytotoxicity in triplicate)), 435028 (Confirmation (IDE inhibitors in triplicate)), 434984 (Summary …; assay type: functional
# T2 sequence (P14735 whole entry): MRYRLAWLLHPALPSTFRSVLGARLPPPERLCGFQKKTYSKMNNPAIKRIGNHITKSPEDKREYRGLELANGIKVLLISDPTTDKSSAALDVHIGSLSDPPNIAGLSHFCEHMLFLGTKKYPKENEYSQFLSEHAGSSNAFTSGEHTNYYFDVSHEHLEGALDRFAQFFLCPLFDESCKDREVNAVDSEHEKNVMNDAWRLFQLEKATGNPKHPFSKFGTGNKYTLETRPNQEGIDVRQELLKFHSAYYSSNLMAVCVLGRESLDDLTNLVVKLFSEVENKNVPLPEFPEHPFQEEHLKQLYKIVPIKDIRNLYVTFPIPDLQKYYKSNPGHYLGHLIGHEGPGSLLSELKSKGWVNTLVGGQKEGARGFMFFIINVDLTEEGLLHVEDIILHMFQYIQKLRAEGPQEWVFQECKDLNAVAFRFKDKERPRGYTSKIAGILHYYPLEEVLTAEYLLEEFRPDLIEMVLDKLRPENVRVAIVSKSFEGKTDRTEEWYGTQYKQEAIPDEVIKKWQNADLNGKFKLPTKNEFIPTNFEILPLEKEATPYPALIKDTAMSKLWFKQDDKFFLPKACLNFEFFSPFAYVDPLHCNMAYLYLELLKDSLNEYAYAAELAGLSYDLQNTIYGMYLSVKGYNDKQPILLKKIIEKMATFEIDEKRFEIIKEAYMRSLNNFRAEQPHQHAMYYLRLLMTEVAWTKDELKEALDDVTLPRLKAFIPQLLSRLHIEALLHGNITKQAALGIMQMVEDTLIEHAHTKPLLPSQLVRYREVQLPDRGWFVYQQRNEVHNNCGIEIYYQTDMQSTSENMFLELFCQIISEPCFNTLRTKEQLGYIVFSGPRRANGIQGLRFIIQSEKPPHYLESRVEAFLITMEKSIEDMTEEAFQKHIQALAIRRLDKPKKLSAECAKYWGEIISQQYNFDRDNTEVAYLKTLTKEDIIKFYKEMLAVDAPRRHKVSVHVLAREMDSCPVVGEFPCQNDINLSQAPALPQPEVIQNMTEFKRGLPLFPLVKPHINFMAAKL
# [6] = Counterscreen for IDE inhibitors: Luminescence-based cell-based high throughput dose response assay to identify compounds that are cytotoxic to HEK cells. [Related pubchem assays: 434962 (Primary screen (IDE inhibitors in singlicate)), 449730 (Counterscreen (Cytotoxicity in triplicate)), 435028 (Confirmation (IDE inhibitors in triplicate)) …; assay type: functional; conditions: HEK293
# Chain of Kallikrein-7 (P49862 whole entry): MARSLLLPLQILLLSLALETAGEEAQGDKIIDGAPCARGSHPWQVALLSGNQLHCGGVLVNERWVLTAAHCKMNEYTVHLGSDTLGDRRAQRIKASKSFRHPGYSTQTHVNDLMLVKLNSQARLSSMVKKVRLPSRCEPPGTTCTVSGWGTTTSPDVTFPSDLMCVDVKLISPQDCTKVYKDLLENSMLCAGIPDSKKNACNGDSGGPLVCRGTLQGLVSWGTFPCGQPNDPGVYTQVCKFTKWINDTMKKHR
structure (smiles),measurement,setting,value
N=c1c(C(=O)NCC2CCCO2)cc2c(=O)n3ccccc3nc2n1C1CCCC1 (stereo not given),EC50,Kallikrein-7,24.4 µM (inactive)
CCN(CC)C(=S)NC(=O)c1ccc(OC)c(Br)c1,EC50,[1],0.66 µM (active)
COC(=O)c1sccc1NS(=O)(=O)c1ccc(F)cc1F,EC50,[1],2.94 µM (active)
Cc1ccc(NC(=O)N2CCc3ccccc32)cc1,EC50,HT-1080,> 50 µM (not active)
same,EC50,[2],0.72 µM (active)
O=C(O)c1cc(-c2ccc(/C=N/n3cnnc3)o2)ccc1O,IC50,[3],> 100 µM (not active)
Nc1ccc2[nH]c(-c3cc(Cl)c(N)c(Cl)c3)nc2c1,EC50,[4],42.8 µM (active)
same,IC50,[5],> 64 µM (inactive)
same,EC50,Streptococcus,> 150 µM (not active)
same,EC50,Kallikrein-7,> 69.5 µM (inactive)
same,EC50,Streptokinase A,> 150 µM (not active)
Cc1cccc(C(=O)Nc2ccnc(-c3cccnc3)n2)c1,IC50,Insulin-degrading enzyme,7 µM (active)
same,IC50,[6],35.7 µM (not active)
CC1CCN(c2ccc3c(c2)S(=O)(=O)c2cccc(C(=O)NC4CC4)c2C3=O)CC1,IC50,Insulin-degrading enzyme,> 55.9 µM (not active)
same,IC50,[6],22.6 µM (not active)
